In patent US20220265818A1, “CHIMERIC ANTIGENS FOR TREATING VIRAL INFECTION” (AKSHAYA BIO INC., priority 2019, published 2022):

Test system: HBV
Test: Liver HBV DNA in HBV transgenic mice
Settings: ADV at 5 mg/kg/day, oral gavage

SMILES: CC(C)(C)C(=O)OCOP(=O)(COCCn1cnc2c(N)ncnc21)OCOC(=O)C(C)(C)C [ADV, Adefovir dipivoxil]
- liver HBV DNA: reduced liver HBV DNA
